Series [1] can be described thus: ASSAY (III) ThT fibrillation assay for physical stability. The series is classed as physicochemical. A digest of the protocol: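 Physical stability scored by ThT fluorescence (444 nm excitation, 485 nm emission) tracked every 20 min during 37 °C incubation with 960 rpm shaking, ThT at 1 μM final. Values are replicate means with SD at chosen times; HPLC against pramlintide standard gives initial and post-assay soluble concentrations.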

Series [2] is described as follows: ASSAY (IV) determination of solubility. The series is classed as physicochemical. In short, it runs like this: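 Solubility measured by UPLC of supernatant after centrifugation, following 18 h at room temperature. Peptide ([…] in water) was diluted 1:1 into 100 mM glycylglycine (pH 3.0, 4.0, 5.0) or bistrispropane (pH 6.0-8.0).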
The target in series [3] is T1, rat amylin receptor (rat calcitonin receptor + rat RAMP 3) (Rattus norvegicus, UniProt P32214+Q9JJ73).
T1 construct: expressed in transfected cells; host or cells: BHK tk'ts 13 (transient, FuGENE 6), membranes
T1 sequence (P32214 25-479 isoform P32214-2 limits assumed): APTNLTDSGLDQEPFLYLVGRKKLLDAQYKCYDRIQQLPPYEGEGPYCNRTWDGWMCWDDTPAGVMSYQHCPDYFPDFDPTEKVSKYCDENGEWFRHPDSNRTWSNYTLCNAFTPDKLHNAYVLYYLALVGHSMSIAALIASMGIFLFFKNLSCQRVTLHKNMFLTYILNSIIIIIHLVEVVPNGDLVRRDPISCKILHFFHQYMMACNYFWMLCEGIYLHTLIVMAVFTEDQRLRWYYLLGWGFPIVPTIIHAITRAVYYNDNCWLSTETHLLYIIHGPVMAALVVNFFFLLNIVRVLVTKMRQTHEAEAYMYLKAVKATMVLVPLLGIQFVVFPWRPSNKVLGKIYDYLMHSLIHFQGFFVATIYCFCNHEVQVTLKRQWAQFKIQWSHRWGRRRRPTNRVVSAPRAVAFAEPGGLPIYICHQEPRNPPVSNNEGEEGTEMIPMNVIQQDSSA
T1 sequence (Q9JJ73 23-147 partner): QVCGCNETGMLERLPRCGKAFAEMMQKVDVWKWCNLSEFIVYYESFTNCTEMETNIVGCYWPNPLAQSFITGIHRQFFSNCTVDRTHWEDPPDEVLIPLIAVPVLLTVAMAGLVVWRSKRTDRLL
Nature of the series: ASSAY (VI) binding to the rat amylin receptor. Conditions: for IC50: binding to rat amylin receptor, read-out: rAmylin-R bind IC50. In short, it runs like this:
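The cell-membrane assay assessed binding at the rat amylin receptor. BHK tk′ts 13 cells were transfected transiently with rat calcitonin receptor, with FuGENE® 6 (Roche) as the transfection reagent, used per the manufacturer's recommendations. Approximately 48 hours after transfection the cells were harvested, and membranes were prepared for measuring binding.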

[4] abbreviates: bistrispropane buffer, pH 6.5, read-out: Solubility pH 6.5 Concentration.
Setting [5] is: bistrispropane buffer, pH 7.5, read-out: Solubility pH 7.5 Concentration.
Where [6] appears, read: bistrispropane buffer, pH 6.0, read-out: Solubility pH 6.0 Concentration.
Where [7] appears, read: bistrispropane buffer, pH 7.0, read-out: Solubility pH 7.0 Concentration.
The mark [8] stands for this setting: bistrispropane buffer, pH 8.0, read-out: Solubility pH 8.0 Concentration.
The mark [9] stands for this setting: glycylglycine buffer, pH 3.0, read-out: Solubility pH 3.0 Concentration.
[10] abbreviates: glycylglycine buffer, pH 4.0, read-out: Solubility pH 4.0 Concentration.
Where [11] appears, read: glycylglycine buffer, pH 5.0, read-out: Solubility pH 5.0 Concentration.
[12] abbreviates: Table 7, rat binding selectivity, rCTR IC50 / rAmylin-R IC50.
Setting [13] is: Table 7a (preferred compounds), rat binding selectivity, rCTR IC50 / rAmylin-R IC50.
[14] abbreviates: ratio of rCTR bind IC50 to rAmylin-R bind IC50.

Converted amounts (≈) assume the structure as drawn. Where two headings read alike, the source gives them in different places. Numbered stars: 1 amine (or outer) side, 2 acyl side, 3 side chain; on linkers, the order of the positions; unused ones are H or OH. Bridge positions count the residues as written; N and C are the ends. Side chains are listed from the residue outwards. Peptide text beside a SMILES is read from it. * marks the point of attachment. C20 diacid = O=C(O)CCCCCCCCCCCCCCCCCCC(=O)*; γGlu = O=C(O)[C@H](CCC(=O)[*:2])N[*:1] Bounds are passed on as bounds.

Regarding `CC[C@H](C)[C@H](NC(=O)[C@H](C)NC(=O)CNC(=O)[C@H](Cc1ccccc1)NC(=O)[C@H](CC(N)=O)NC(=O)[C@@H]1CCCN1C(=O)[C@H](CO)NC(=O)[C@H](CO)NC(=O)[C@H](Cc1c[nH]cn1)NC(=O)[C@H](CCCNC(=N)N)NC(=O)[C@H](CC(C)C)NC(=O)[C@H](Cc1ccccc1)NC(=O)[C@H](CC(=O)O)NC(=O)[C@H](C)NC(=O)[C@H](CC(C)C)NC(=O)[C@H](CCCNC(=N)N)NC(=O)[C@H](CCC(N)=O)NC(=O)[C@@H](NC(=O)[C@H](C)NC(=O)[C@@H]1CSSC[C@H](NC(=O)[C@@H](N)CCCCNC(=O)CC[C@H](NC(=O)CC[C@H](NC(=O)CCCCCCCCCCCCCCCCCCC(=O)O)C(=O)O)C(=O)O)C(=O)N[C@@H](CC(N)=O)C(=O)N[C@@H]([C@@H](C)O)C(=O)N[C@@H](C)C(=O)N[C@@H]([C@@H](C)O)C(=O)N1)[C@@H](C)O)C(=O)N1CCC[C@H]1C(=O)N[C@@H](CO)C(=O)N[C@@H](CO)C(=O)N[C@H](C(=O)N[C@@H](CC(N)=O)C(=O)N[C@H](C(=O)NCC(=O)N[C@@H](CO)C(=O)N[C@@H](CC(=O)O)C(=O)N[C@H](C(=O)N[C@@H](Cc1ccc(O)cc1)C(N)=O)[C@@H](C)O)C(C)C)[C@@H](C)O` [Example 2] (H-K([γGlu-γGlu-C20 diacid])CNTATCATQRLADFLRHSSPNFGAIPSSTNVGSDTY-NH2; disulfide 2-7; N-terminus assumed), the “ThT pH 4.0 lag time (h)” value in series [1] is reported as 10 h. Also, the solubility at 18 h was 190 µM (≈ 857 µg/mL) in series [2] (setting [4]); no less than 200 µM in series [2] (setting [5]); no less than 200 µM in series [2] (setting [6]); no less than 200 µM in series [2] (setting [7]); no less than 200 µM in series [2] (setting [8]); no less than 200 µM in series [2] (setting [9]). For the same molecule, the solubility at 18 h in series [2] (setting [10]) and in series [2] (setting [11]) was no less than 200 µM throughout. In addition, in series [3] (Table 7), the IC50 is 0.295 nM. For the same molecule, the “Ratio rCT/rAmylin binding” value in series [3] (setting [12]), in series [3] (setting [13]) and in series [3] (setting [14]) was 365.7 each time.
`CC[C@H](C)[C@H](NC(=O)[C@H](C)NC(=O)CNC(=O)[C@H](Cc1ccccc1)NC(=O)[C@H](CC(N)=O)NC(=O)[C@@H]1CCCN1C(=O)[C@H](CO)NC(=O)[C@H](CO)NC(=O)[C@H](Cc1c[nH]cn1)NC(=O)[C@H](CCCNC(=N)N)NC(=O)[C@H](CC(C)C)NC(=O)[C@H](Cc1ccccc1)NC(=O)[C@H](CCC(=O)O)NC(=O)[C@H](C)NC(=O)[C@H](CC(C)C)NC(=O)[C@H](CCCNC(=N)N)NC(=O)[C@H](CCC(N)=O)NC(=O)[C@@H](NC(=O)[C@H](C)NC(=O)[C@@H]1CSSC[C@H](NC(=O)[C@@H](N)CCCCNC(=O)CC[C@H](NC(=O)CCCCCCCCCCCCCCCCCCC(=O)O)C(=O)O)C(=O)N[C@@H](CC(N)=O)C(=O)N[C@@H]([C@@H](C)O)C(=O)N[C@@H](C)C(=O)N[C@@H]([C@@H](C)O)C(=O)N1)[C@@H](C)O)C(=O)N1CCC[C@H]1C(=O)N[C@@H](CO)C(=O)N[C@@H](CO)C(=O)N[C@H](C(=O)N[C@@H](CC(N)=O)C(=O)N[C@H](C(=O)NCC(=O)N[C@@H](CO)C(=O)N[C@@H](CC(N)=O)C(=O)N[C@H](C(=O)N1CCC[C@H]1C(N)=O)[C@@H](C)O)C(C)C)[C@@H](C)O` [Example 12] (H-K([γGlu-C20 diacid])CNTATCATQRLAEFLRHSSPNFGAIPSSTNVGSNTP-NH2; disulfide 2-7 (inferred); N-terminus assumed): the “ThT pH 4.0 lag time (h)” value in series [1] came to 45 h. The solubility at 18 h in series [2] (setting [4]), in series [2] (setting [5]), in series [2] (setting [6]), in series [2] (setting [7]), in series [2] (setting [8]) and in series [2] (setting [9]) was no less than 200 µM throughout. The solubility at 18 h in series [2] (setting [10]) and in series [2] (setting [11]) was no less than 200 µM each time. Besides, the “Ratio rCT/rAmylin binding” value in series [3] (setting [12]) is 5.0.
For the molecule `CC[C@H](C)[C@H](NC(=O)[C@H](C)NC(=O)CNC(=O)[C@H](Cc1ccccc1)NC(=O)[C@H](CC(N)=O)NC(=O)[C@@H]1CCCN1C(=O)[C@H](CO)NC(=O)[C@H](CO)NC(=O)[C@H](Cc1c[nH]cn1)NC(=O)[C@H](CCCNC(=N)N)NC(=O)[C@H](CC(C)C)NC(=O)[C@H](Cc1ccccc1)NC(=O)[C@H](CCC(=O)O)NC(=O)[C@H](C)NC(=O)[C@H](CC(C)C)NC(=O)[C@H](CCCNC(=N)N)NC(=O)[C@H](CCC(N)=O)NC(=O)[C@@H](NC(=O)[C@H](C)NC(=O)[C@@H]1CSSC[C@H](NC(=O)[C@H](CCCCN)NC(=O)CC[C@H](NC(=O)CCCCCCCCCCCCCCCCCCC(=O)O)C(=O)O)C(=O)N[C@@H](CC(N)=O)C(=O)N[C@@H]([C@@H](C)O)C(=O)N[C@@H](C)C(=O)N[C@@H]([C@@H](C)O)C(=O)N1)[C@@H](C)O)C(=O)N1CCC[C@H]1C(=O)N[C@@H](CO)C(=O)N[C@@H](CO)C(=O)N[C@H](C(=O)N[C@@H](CC(N)=O)C(=O)N[C@H](C(=O)NCC(=O)N[C@@H](CO)C(=O)N[C@@H](CCCNC(=N)N)C(=O)N[C@H](C(=O)N[C@@H](Cc1ccc(O)cc1)C(N)=O)[C@@H](C)O)C(C)C)[C@@H](C)O` [Example 16] ({C20 diacid-γGlu}-KCNTATCATQRLAEFLRHSSPNFGAIPSSTNVGSRTY-NH2; disulfide 2-7), the “ThT pH 4.0 lag time (h)” value in series [1] is listed as 45 h. Moreover, the solubility at 18 h in series [2] (setting [4]), in series [2] (setting [5]), in series [2] (setting [6]), in series [2] (setting [7]), in series [2] (setting [8]) and in series [2] (setting [9]) was no less than 200 µM each time. The solubility at 18 h in series [2] (setting [10]) and in series [2] (setting [11]) was no less than 200 µM each time. Also, the IC50 in series [3] (Table 7) came to 1.21 nM. Besides, the “Ratio rCT/rAmylin binding” value in series [3] (setting [12]), in series [3] (setting [13]) and in series [3] (setting [14]) was 45.6 throughout.
With `CC[C@H](C)[C@H](NC(=O)[C@H](C)NC(=O)CNC(=O)[C@H](Cc1ccccc1)NC(=O)[C@H](CC(N)=O)NC(=O)[C@@H]1CCCN1C(=O)[C@H](CO)NC(=O)[C@H](CO)NC(=O)[C@H](Cc1c[nH]cn1)NC(=O)[C@H](CCCNC(=N)N)NC(=O)[C@H](CC(C)C)NC(=O)[C@H](Cc1ccccc1)NC(=O)[C@H](CCC(=O)O)NC(=O)[C@H](C)NC(=O)[C@H](CC(C)C)NC(=O)[C@H](CCCNC(=N)N)NC(=O)[C@H](CCC(N)=O)NC(=O)[C@@H](NC(=O)[C@H](C)NC(=O)[C@@H]1CSSC[C@H](NC(=O)[C@@H](N)CCCCNC(=O)CC[C@H](NC(=O)CC[C@H](NC(=O)CCCCCCCCCCCCCCCCCCC(=O)O)C(=O)O)C(=O)O)C(=O)N[C@@H](CC(N)=O)C(=O)N[C@@H]([C@@H](C)O)C(=O)N[C@@H](C)C(=O)N[C@@H]([C@@H](C)O)C(=O)N1)[C@@H](C)O)C(=O)N1CCC[C@H]1C(=O)N[C@@H](CO)C(=O)N[C@@H](CO)C(=O)N[C@H](C(=O)N[C@@H](CC(N)=O)C(=O)N[C@H](C(=O)NCC(=O)N1CCC[C@H]1C(=O)N[C@@H](CC(N)=O)C(=O)N[C@H](C(=O)N[C@@H](Cc1ccccc1)C(N)=O)[C@@H](C)O)C(C)C)[C@@H](C)O` [Example 127] (H-K([γGlu-γGlu-C20 diacid])CNTATCATQRLAEFLRHSSPNFGAIPSSTNVGPNTF-NH2; disulfide 2-7 (inferred)), in series [1], the “ThT pH 4.0 lag time (h)” value was 25 h. In series [3] (Table 7), the IC50 stood at 0.205 nM. The “Ratio rCT/rAmylin binding” value in series [3] (setting [12]), in series [3] (setting [13]) and in series [3] (setting [14]) was 114.0 in each case.

Values taken from patent US9023789B2, “Amylin analogs and pharmaceutical compositions thereof” (Novo Nordisk A/S, priority 2012, dated 2015).
